# Assay results reported in article PMC4303309 (Biochemistry, 2014).
# Target: DaCld (Dechloromonas aromatica (nom. nud.), UniProt Q47CX0)
# Settings: MCD as HOCl trap
# Sequence of DaCld (Q47CX0 35-282 limits assumed): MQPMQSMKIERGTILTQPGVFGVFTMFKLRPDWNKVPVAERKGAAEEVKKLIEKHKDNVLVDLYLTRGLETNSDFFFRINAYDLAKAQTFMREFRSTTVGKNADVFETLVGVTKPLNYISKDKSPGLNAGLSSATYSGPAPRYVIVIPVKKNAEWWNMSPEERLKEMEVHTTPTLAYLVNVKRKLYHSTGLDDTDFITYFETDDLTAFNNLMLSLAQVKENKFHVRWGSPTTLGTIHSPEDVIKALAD
compound,measurement,value
[O-][Cl+]O [chlorite],reaction with chlorite in the presence of MCD (UV-visible),no MCD-trappable HOCl could be detected for DaCld under conditions similar to those used
